The values below are quoted from earlier work in US8309103B2, “Association of fluconazole-tinidazole for the treatment of vaginal infections, its composition, preparation process and usage” (Alparis, S.A. DE C.V., priority 2004, dated 2012).

Molecules are shown by their SMILES. Where two headings read alike, the source gives them in different places.

For data set [1] the following is noted: in vivo, po.
The test system of data set [2] is vaginal candidiasis. The following applies: one dose of 150 mg; 1,017 patients with vaginal candidiasis.
Data set [3] deals with Trichomonas vaginalis. The following applies: 2 grams in an only dose, sexual partner also involved.
In data set [4] the test system is Bacterial Vaginosis (Gardnerella vaginallis).

Consider `OC(Cn1cncn1)(Cn1cncn1)c1ccc(F)cc1F` [fluconazole], for which the “Relationship between plasma and the vaginal tissue” value in data set [1] was 0.94-1.1. Besides, in data set [2], the “Patients in whom well received and effective” value is given as 91%.

Turning to `Cc1ncc([N+](=O)[O-])n1CCO` [metronidazole], in data set [3], the Efficacy result is listed as “up to 85%”.

`Cc1ncc([N+](=O)[O-])n1CC(C)O` (centres unmarked) [secnidazole]: under “in 120 hours”, the “Share of the dose taken excreted (essentially urinary)” value is 50%. For the same molecule, for the setting “oral, one 2 g dose”, the Average plasmatic life result is reported as “about 25 hours” and the “Time at which the highest seric rates are obtained” value was “third”.

Consider `CCS(=O)(=O)CCn1c([N+](=O)[O-])cnc1C` [tinidazole], for which the Curative rate in data set [4] (an only dose of 2 g tinidazole) was 92%; in data set [4] (same amount (2 g) in a two-day scheme, other researchers), 51%.
